Experimental data reported in US9556165B2 (priority 2012, dated 2017).
≈ marks a conversion by molar mass, not a printed value. Where two headings read alike, the source gives them in different places.

Columns and labels:
Assay type in all cases: cell-based
[1] = test system: H. influenzae ATCC 49247; experiment: MIC determination, broth microdilution (CLSI); settings: Haemophilus influenzae, ATCC49247, strain 12; broth microdilution; read-out: MIC strain 12 (H. influenzae ATCC 49247)
[2] = test system: P. aeruginosa 2297 (AmpC wt); experiment: MIC determination, broth microdilution (CLSI); settings: Pseudomonas aeruginosa, strain 7
[3] = test system: E. coli ATCC25922; experiment: MIC determination, broth microdilution (CLSI); settings: Escherichia coli, ATCC25922, strain 1
[4] = test system: C. freundii K21/3034; experiment: MIC determination, broth microdilution (CLSI); settings: Citrobacter freundii, K21/3034, strain 4
[5] = test system: P. aeruginosa 2297-con (AmpC derepressed); experiment: MIC determination, broth microdilution (CLSI); settings: Pseudomonas aeruginosa, read-out: strain 8 MIC, strain 8
[6] = test system: Bacteria; experiment: MIC determination in combination with β-lactamase inhibitors (constant 4 μg/mL)
[7] = test system: S. pneumoniae 113; experiment: MIC determination, broth microdilution (CLSI); settings: Streptococcus pneumoniae, 113, strain 13; broth microdilution; read-out: MIC strain 13 (S. pneumoniae 113)
[8] = test system: K. pneumoniae 60; experiment: MIC determination, broth microdilution (CLSI); settings: Klebsiella pneumoniae, 60, strain 2
[9] = test system: S. aureus 133; experiment: MIC determination, broth microdilution (CLSI)
[10] = test system: M. morganii 126/3048; experiment: MIC determination, broth microdilution (CLSI); settings: Morganella morganii, 126/3048, strain 5
[11] = test system: E. coli J62; experiment: MIC determination, broth microdilution (CLSI); settings: Escherichia coli, J62, strain 17; broth microdilution; read-out: MIC strain 17 (E. coli J62)
[12] = test system: A. baumannii ATCC15308; experiment: MIC determination, broth microdilution (CLSI); settings: Acinetobacter baumannii, ATCC15308, strain 9
[13] = test system: E. cloacae 34654; experiment: MIC determination, broth microdilution (CLSI); settings: Enterobacter cloacae, 34654, strain 3
[14] = test system: B. fragilis 6688; experiment: MIC determination, broth microdilution (CLSI); settings: Bacteroides fragilis, 6688, strain 15; broth microdilution; read-out: MIC strain 15 (B. fragilis 6688)
[15] = test system: P. aeruginosa PAO1; experiment: MIC determination, broth microdilution (CLSI); settings: Pseudomonas aeruginosa, PAO1, strain 6
[16] = test system: E. coli J62-TEM-3; experiment: MIC determination, broth microdilution (CLSI); settings: Escherichia coli, J62TEM3, read-out: MIC strain 18 (E. coli J62-TEM-3), strain 18; broth microdilution
[17] = Staphylococcus aureus, 133, strain 11, read-out: strain 11 MIC
[18] = Staphylococcus aureus, 133, strain 14, broth microdilution, read-out: MIC strain 14 (S. aureus 133)

C[C@@H]1[C@H](NC(=O)/C(=N\OCCCOc2ccc(C(=N)N)cc2)c2csc(N)n2)C(=O)N1S(=O)(=O)O [Example 48, (2R,3S)-3-{[(2Z)-2-(2-Amino-1,3-thiazol-4-yl)-2-{[3-(4-carbamimidoylphenoxy)propoxy]imino}acetyl]amino}-2-methyl-4-oxoazetidine-1-sulfonic acid]
MIC [1]: 0.5 µg/mL (≈ 0.951 µM)
MIC [2]: 16 µg/mL (≈ 30.4 µM)
MIC [3]: 2 µg/mL (≈ 3.81 µM)
MIC [4]: 2 µg/mL (≈ 3.81 µM)
MIC [5]: 32 µg/mL (≈ 60.9 µM)
MIC strain 19 (E. coli J62-TEM-3 + 4 μg/mL clavulanic acid) [6]: 2 mg/L
MIC strain 20 (E. coli J62-TEM-3 + 4 μg/mL sulbactam) [6]: 2 mg/L
MIC strain 21 (E. coli J62-TEM-3 + 4 μg/mL tazobactam) [6]: 2 mg/L
MIC [7]: 1 µg/mL (≈ 1.9 µM)
MIC [8]: 4 µg/mL (≈ 7.61 µM)
MIC [9, 17]: 0.5 µg/mL (≈ 0.951 µM)
MIC [9, 18]: 4 µg/mL (≈ 7.61 µM)
MIC [10]: 1 µg/mL (≈ 1.9 µM)
MIC [11]: 2 µg/mL (≈ 3.81 µM)
MIC [12]: 8 µg/mL (≈ 15.2 µM)
MIC [13]: 4 µg/mL (≈ 7.61 µM)
MIC [14]: 16 µg/mL (≈ 30.4 µM)
MIC [15]: 8 µg/mL (≈ 15.2 µM)

C[C@H]1[C@H](NC(=O)/C(=N\OCCOc2ccc(C(=N)N)cc2Br)c2csc(N)n2)C(=O)N1S(=O)(=O)O [Example 49, (2S,3S)-3-{[(2Z)-2-(2-Amino-1,3-thiazol-4-yl)-2-{[2-(2-bromo-4-carbamimidoyl-phenoxy)ethoxy]imino}acetyl]amino}-2-methyl-4-oxoazetidine-1-sulfonic acid]
MIC [1]: 0.5 µg/mL (≈ 0.847 µM)
MIC [2]: 16 µg/mL (≈ 27.1 µM)
MIC [3]: 1 µg/mL (≈ 1.69 µM)
MIC [4]: 1 µg/mL (≈ 1.69 µM)
MIC [5]: 32 µg/mL (≈ 54.2 µM)
MIC strain 19 (E. coli J62-TEM-3 + 4 μg/mL clavulanic acid) [6]: 2 mg/L
MIC strain 20 (E. coli J62-TEM-3 + 4 μg/mL sulbactam) [6]: 2 mg/L
MIC strain 21 (E. coli J62-TEM-3 + 4 μg/mL tazobactam) [6]: 2 mg/L
MIC [7]: 0.5 µg/mL (≈ 0.847 µM)
MIC [8]: 2 µg/mL (≈ 3.39 µM)
MIC [9, 17]: 0.125 µg/mL (≈ 0.212 µM)
MIC [9, 18]: 16 µg/mL (≈ 27.1 µM)
MIC [10]: 2 µg/mL (≈ 3.39 µM)
MIC [11]: 2 µg/mL (≈ 3.39 µM)
MIC [12]: 4 µg/mL (≈ 6.77 µM)
MIC [13]: 2 µg/mL (≈ 3.39 µM)
MIC [14]: 16 µg/mL (≈ 27.1 µM)
MIC [15]: 8 µg/mL (≈ 13.5 µM)

C[C@H]1[C@H](NC(=O)/C(=N\OCCOc2ccc(NC(=N)N)cc2)c2csc(N)n2)C(=O)N1S(=O)(=O)O [Example 50, (2S,3S)-3-{[(2Z)-2-(2-Amino-1,3-thiazol-4-yl)-2-{[2-(4-carbamimidamidophenoxy)ethoxy]imino}acetyl]amino}-2-methyl-4-oxoazetidine-1-sulfonic acid]
MIC [1]: 0.25 µg/mL (≈ 0.475 µM)
MIC [2]: 16 µg/mL (≈ 30.4 µM)
MIC [3]: 0.5 µg/mL (≈ 0.95 µM)
MIC [4]: 1 µg/mL (≈ 1.9 µM)
MIC [5]: 32 µg/mL (≈ 60.8 µM)
MIC strain 19 (E. coli J62-TEM-3 + 4 μg/mL clavulanic acid) [6]: 1 mg/L
MIC strain 20 (E. coli J62-TEM-3 + 4 μg/mL sulbactam) [6]: 1 mg/L
MIC strain 21 (E. coli J62-TEM-3 + 4 μg/mL tazobactam) [6]: 1 mg/L
MIC [7]: 1 µg/mL (≈ 1.9 µM)
MIC [8]: 0.5 µg/mL (≈ 0.95 µM)
MIC [9, 17]: 0.125 µg/mL (≈ 0.237 µM)
MIC [9, 18]: 8 µg/mL (≈ 15.2 µM)
MIC [10]: 0.5 µg/mL (≈ 0.95 µM)
MIC [11]: 1 µg/mL (≈ 1.9 µM)
MIC [12]: 2 µg/mL (≈ 3.8 µM)
MIC [13]: 1 µg/mL (≈ 1.9 µM)
MIC [14]: 16 µg/mL (≈ 30.4 µM)
MIC [15]: 8 µg/mL (≈ 15.2 µM)

C[C@H]1[C@H](NC(=O)/C(=N\OCCCOc2ccc(NC(=N)N)cc2)c2csc(N)n2)C(=O)N1S(=O)(=O)O [Example 51, (2S,3S)-3-{[(2Z)-2-(2-Amino-1,3-thiazol-4-yl)-2-{[3-(4-carbamimidamidophenoxy)propoxy]imino}acetyl]amino}-2-methyl-4-oxoazetidine-1-sulfonic acid]
MIC [1]: 0.5 µg/mL (≈ 0.925 µM)
MIC [2]: 16 µg/mL (≈ 29.6 µM)
MIC [3]: 2 µg/mL (≈ 3.7 µM)
MIC [4]: 2 µg/mL (≈ 3.7 µM)
MIC [5]: 32 µg/mL (≈ 59.2 µM)
MIC strain 19 (E. coli J62-TEM-3 + 4 μg/mL clavulanic acid) [6]: 4 mg/L
MIC strain 20 (E. coli J62-TEM-3 + 4 μg/mL sulbactam) [6]: 4 mg/L
MIC strain 21 (E. coli J62-TEM-3 + 4 μg/mL tazobactam) [6]: 4 mg/L
MIC [7]: 1 µg/mL (≈ 1.85 µM)
MIC [8]: 4 µg/mL (≈ 7.4 µM)
MIC [9, 17]: 0.5 µg/mL (≈ 0.925 µM)
MIC [9, 18]: 8 µg/mL (≈ 14.8 µM)
MIC [10]: 2 µg/mL (≈ 3.7 µM)
MIC [11]: 4 µg/mL (≈ 7.4 µM)
MIC [12]: 4 µg/mL (≈ 7.4 µM)
MIC [13]: 2 µg/mL (≈ 3.7 µM)
MIC [14]: 16 µg/mL (≈ 29.6 µM)
MIC [15]: 16 µg/mL (≈ 29.6 µM)

C[C@H]1[C@H](NC(=O)/C(=N\OCCOc2ccc(C(=N)N)cc2)c2nsc(N)n2)C(=O)N1S(=O)(=O)O [Example 52]
MIC [1]: 8 µg/mL (≈ 15.6 µM)
MIC [2]: 4 µg/mL (≈ 7.8 µM)
MIC [3]: 1 µg/mL (≈ 1.95 µM)
MIC [4]: 0.25 µg/mL (≈ 0.488 µM)
MIC [5]: 16 µg/mL (≈ 31.2 µM)
MIC strain 19 (E. coli J62-TEM-3 + 4 μg/mL clavulanic acid) [6]: 2 mg/L
MIC strain 20 (E. coli J62-TEM-3 + 4 μg/mL sulbactam) [6]: 2 mg/L
MIC strain 21 (E. coli J62-TEM-3 + 4 μg/mL tazobactam) [6]: 2 mg/L
MIC [7]: 16 µg/mL (≈ 31.2 µM)
MIC [8]: 0.5 µg/mL (≈ 0.976 µM)
MIC [9, 17]: 2 µg/mL (≈ 3.9 µM)
MIC [9, 18]: 8 µg/mL (≈ 15.6 µM)
MIC [10]: 1 µg/mL (≈ 1.95 µM)
MIC [11]: 2 µg/mL (≈ 3.9 µM)
MIC [12]: 1 µg/mL (≈ 1.95 µM)
MIC [13]: 1 µg/mL (≈ 1.95 µM)
MIC [14]: 32 µg/mL (≈ 62.4 µM)
MIC [15]: 4 µg/mL (≈ 7.8 µM)

C[C@H]1[C@H](NC(=O)/C(=N\OCc2ccc(C(=N)N)cc2)c2csc(N)n2)C(=O)N1S(=O)(=O)O [Example 55, (2S,3S)-3-{[(2Z)-2-(2-Amino-1,3-thiazol-4-yl)-2-{[(4-carbamimidoylbenzyl)oxy]imino}-acetyl]amino}-2-methyl-4-oxoazetidine-1-sulfonic acid]
MIC [1]: 1 µg/mL (≈ 2.08 µM)
MIC [3]: 0.5 µg/mL (≈ 1.04 µM)
MIC [4]: 0.25 µg/mL (≈ 0.519 µM)
MIC [5]: 32 µg/mL (≈ 66.5 µM)
MIC strain 19 (E. coli J62-TEM-3 + 4 μg/mL clavulanic acid) [6]: 1 mg/L
MIC strain 20 (E. coli J62-TEM-3 + 4 μg/mL sulbactam) [6]: 0.5 mg/L
MIC strain 21 (E. coli J62-TEM-3 + 4 μg/mL tazobactam) [6]: 0.5 mg/L
MIC [7]: 0.125 µg/mL (≈ 0.26 µM)
MIC [8]: 1 µg/mL (≈ 2.08 µM)
MIC [9, 17]: 0.25 µg/mL (≈ 0.519 µM)
MIC [9, 18]: 8 µg/mL (≈ 16.6 µM)
MIC [10]: 0.25 µg/mL (≈ 0.519 µM)
MIC [11]: 1 µg/mL (≈ 2.08 µM)
MIC [12]: 4 µg/mL (≈ 8.31 µM)
MIC [13]: 0.5 µg/mL (≈ 1.04 µM)
MIC [14]: 8 µg/mL (≈ 16.6 µM)
MIC [15]: 16 µg/mL (≈ 33.2 µM)

CC1(C)[C@H](NC(=O)/C(=N\O[C@H](COc2ccc(C(=N)NCCNc3ncccn3)cc2)C(=O)O)c2csc(N)n2)C(=O)N1OS(=O)(=O)O [Example 111, (2R)-2-({[(1Z)-1-(2-Amino-1,3-thiazol-4-yl)-2-{[(3S)-2,2-dimethyl-4-oxo-1-(sulfooxy)-azetidin-3-yl]amino}-2-oxoethylidene]amino}oxy)-3-(4-{N-[2-(pyrimidin-2-ylamino)ethyl]carbamimidoyl}phenoxy)propanoic acid]
MIC [1]: 0.25 µg/mL (≈ 0.354 µM)
MIC [2]: 32 µg/mL (≈ 45.3 µM)
MIC [3]: 8 µg/mL (≈ 11.3 µM)
MIC [4]: 4 µg/mL (≈ 5.66 µM)
MIC [5]: 32 µg/mL (≈ 45.3 µM)
MIC [16]: 32 µg/mL (≈ 45.3 µM)
MIC strain 19 (E. coli J62-TEM-3 + 4 μg/mL clavulanic acid) [6]: 8 mg/L
MIC strain 20 (E. coli J62-TEM-3 + 4 μg/mL sulbactam) [6]: 8 mg/L
MIC strain 21 (E. coli J62-TEM-3 + 4 μg/mL tazobactam) [6]: 8 mg/L
MIC [7]: 2 µg/mL (≈ 2.83 µM)
MIC [8]: 8 µg/mL (≈ 11.3 µM)
MIC [10]: 8 µg/mL (≈ 11.3 µM)
MIC [11]: 16 µg/mL (≈ 22.6 µM)
MIC [12]: 32 µg/mL (≈ 45.3 µM)
MIC [13]: 16 µg/mL (≈ 22.6 µM)
MIC [15]: 32 µg/mL (≈ 45.3 µM)
